Bridge positions count the residues as written; N and C are the ends. Ends that are not written are not given here.
Key:
[1] = system: hematopoietic progenitor cells; assay: Hematopoietic progenitor clonogenic assays (CFU-GEMM, BFU-e, CFU-GM); assay type: cell-based, human; conditions: for Pro-hematopoiesis in vitro Enhancement: relative increase of hematopoietic colony cell number, hCG preparations 200 IU/ml, subunits and peptides 100 μg/ml
Method: The effect of hCG preparations and peptides was assayed on hematopoietic progenitor cells in vitro: Hematopoietic progenitor cells (2×10^5 cell/ml) were isolated from normal bone marrow and cord blood and seeded in methylcellulose. […] The hCG preparations were administered at 200 IU/ml and the β- and α-subunits and peptides were administered at 100 μg/ml. The native commercial preparation of hCG (APL™, Wyeth Ayerst) was pre-tested for anti-HIV and anti-KS activities. Aggregates containing more than 50 cells after 10 days of culture were counted as colonies.

KS Y-1 and KS-SLK cells = assay: Kaposi's Sarcoma clonogenic assay in cultured cells; assay type: cell-based, human; conditions: for inhibition of KS cell growth in clonogenic assays (in words): KS Y-1 and KS SLK; for KS in vitro: inhibition of Kaposi's Sarcoma cell growth in vitro in cultured cells
Method: Briefly, the KS Y-1 cells were obtained from mononuclear cells isolated from pleural effusion of an AIDS patient with KS in the lungs. After the depletion of T lymphocytes, monocytes/macrophages and fibroblasts using monoclonal antibodies against CD2, CD3, CD4, CD8, CD10 and CD14 membrane antigens and baby rabbit complement, the cells were cultured in the absence of exogenous growth factors to select for transformed cells. […] Clonogenic assays were performed by seeding the KS Y-1 or KS-SLK cells in methylcellulose (0.8%, v/v), incubating the cells for 10 days in the presence or absence of the hCC, β-hCG or β-hCG peptide preparations and then counting the number of well-formed colonies of triplicate wells formed after seeding with 5×10^4 cells.
To assay for activity against Kaposi's sarcoma cell growth in vitro, the clonogenic assay described herein was used with the KS Y-1 and KS-SLK cultured Kaposi's Sarcoma cell lines,.

HIV-1 = conditions: for HIV in vitro Inhibition: inhibition of HIV-1 replication in vitro (HIV-1 strains and HIV-1 primary isolates)
Source text: To prepare HIV infected cells for the in vitro assay of hCG preparations and β-hCG peptides and derivatives, primary PBMCs, macrophages, and CD4^+ T cells isolated from peripheral blood and the H9 human T cell line, were acutely or chronically infected with 8 different HIV-1 strains: 4 cell line adapted viruses, namely the macrophage tropic Ba-L strain (Gartner et al., 1986, Science 233:215-219) and the CD4^+ T cell tropic MN, RF, and IIIB strains (10^5 TCID50/ml) (Popovic et al., 1984, Science […]; Gallo et al.; 1984, Science 224:500-503); 2 isolates, Ju1083 and G3, from Nigerian AIDS patients passed once in a CD4^+ T cell line (Sub-T1); and 2 primary (“clinical”) isolates from AIDS patients from Trinidad which were never passed in any cell line and were used at a titer of 7.5×10^4TCID50/ml. In all experiments; HIV1 (10^5 TCID50/ml) was added to the cells(10^6 cells/ml) for a 2 hour incubation after which the virus infected cells were washed with 10 ml phosphate buffered saline (PBS) three times to eliminate extra cellular virus. The test inhibitor, i.e. the hCG or β-hCG peptide preparation was then added and the cells were incubated with the test inhibiter for 9 to 10 days with serial sampling. Cultures were assayed for p24 antigen on days 3 to 10.
Peptides of the α- and β-subunits (0.05 to 50 nmoles/ml), native α chain preparation, and various crude preparations of the native hCG heterodimer (0.01 to 1,000 IU) and the native β-hCG subunit (100 to 1,000 μg) were tested for effects on HIV-1 replication in acutely infected cells-by measuring change in viral antigen levels in response to the above noted preparations (FIGS. 4A-D and Table 3).
The fractions were then tested for anti-HIV, anti-KS and pro-hematopoietic activities in vitro. To assay for inhibition of HIV-1 replication in vitro, the HIV-1 […] viral strain was used to infect PBMCs and PM-1 cells (derived from the HUT-78 T-cell lymphoma cell line) at 10^3 TCID50/ml as described in detail herein.

[2] = system: Kaposi's Sarcoma induced in mice; assay: Kaposi's Sarcoma tumors induced in mice by KS Y-1 cells; assay type: in vivo; conditions: for KS in vivo: inhibition of Kaposi's Sarcoma induced in mice; for effect on KS tumors in mice (in words): mouse, in vivo
Method: The effects of the peptides on KS tumor cells were also evaluated in vivo in the KS mouse model. To induce KS tumors in the mice, 1×10^6/ml KS Y-1 cells in 50 μl PBS or saline were injected subcutaneously into immunodeficient mice (beige-XID-BNX mice). […] Methods for detection of apoptosis (from tissue biopsies) were used, as described in Lunardi-Iskandar et al.(1995, Nature 375:64-68). Briefly, the samples were stained in situ for the presence of cells with DNA fragmentation. Tissue slides from formalin-fixed tumors were treated with terminal deoxynucleotide transferase for extension of DNA ends (hydroxyl 3′) and incorporation of digoxigenin-11-dUTP according to the manufacturer's instructions (Oncor, Gaithersburg, Md.). Anti-digoxigenin antibody conjugated with the enzyme peroxidase allowed detection of apoptotic cells, which stain brown, whereas viable cells stain blue.
Certain fractions were tested for activity in reducing Kaposi's Sarcoma lesions in the Kaposi's Sarcoma mouse model as described herein. In this assay, starting one week after injection of the KS Y-1 cells to induce Kaposi's sarcoma formation, the mice were injected subcutaneously with 100 IU hCG. […] After one week of the week of treatment with the hCG fractions, the KS lesions were examined for cell apoptosis and regression as described herein.
Certain fractions of the APL™ hCG and early pregnancy urine were assayed for their ability to elicit apoptosis in Kaposi's Sarcoma lesions induced by injection of KS Y-1 cells in mice (n=3 mice for each treatment). The mice were administered 100 μl subcutaneously of the particular fraction each day for one week.

[3] = system: HIV RNA and protein expression; assay: HIV RNA and protein expression in HIV-1 transgenic mice; assay type: in vivo; conditions: for inhibition of HIV RNA and protein expression: inhibition of HIV RNA and protein expression in HIV-1 transgenic mice; for HIV-1 gene / protein expression in transgenic mice (in words): pups dosed via mother's milk
Source text: The HIV-1 transgenic mice used for this study contain 7.4 kb of foreign DNA, including 5.1 kb of the HIV-1 proviral genome deleted in the gag and pol genes and 2.3 kb of vector (Dickie et al., 1991, Virology 185:109-119). […] In addition, these mice develop severe hyperkeratotic skin lesions with marked expression of gp 120 and nef genes (Kopp et al., 1993, AIDS Res. Hum. Retroviruses 9:267-275; Vasli et al., 1994, AIDS Res. Hum. Retroviruses 10:1241-1250).
Heterozygous transgenic mothers were treated with the hCG preparation subcutaneously twice weekly. Pups received hCG via the mother's milk.
Gene expression was assayed in total RNA extracted from the skin of Tg26 mice with RNAzol. One microgram of RNA was reverse transcribed into cDNA using random hexamer primers and […] reverse transcriptase (Life Technologies, MD) in a final volume of 30 μl. One tenth of the cDNA reactions were used for PCR amplification of various HIV gene sequences (env, tat, rev, nef and vif). In addition, glyceraldehyde 3-phosphate dehydrogenase (GAPHD) mRNA was amplified for each sample for normalization. Following 25 cycles of amplification, 10% of the PCR product was resolved by electrophoresis through 2% agarose gels and processed for Southern hybridization using FITC-labeled oligonucleotide probes complimentary to internal sequences of the amplicons. Detection was performed by chemiluminescence (Amersham) and relative mRNA levels determined by densitometry after normalization with GAPDH mRNA levels.
Finally, certain fractions were tested for their ability to increase survival, promote weight gain and reduce HIV-1 gene expression in HIV-1 transgenic mice as described herein.

Substance | Pro-hematopoiesis in vitro Enhancement [1] | inhibition of KS cell growth in clonogenic assays (in words) (KS Y-1 and KS-SLK cells) | KS in vitro (KS Y-1 and KS-SLK cells) | inhibition of HIV-1 infection/replication in vitro (in words) (HIV-1) | HIV in vitro Inhibition (HIV-1) | KS in vivo [2] | effect on KS tumors in mice (in words) [2] | inhibition of HIV RNA and protein expression [3] | promotion of hematopoiesis (in words) [1] | HIV-1 gene / protein expression in transgenic mice (in words) [3]
2. 109-145: β-hCG amino acids 109-145 (SEQ ID NO:25) (TCDDPRFQDSSSSKAPPPSLPSPSRLPGPSDTPILPQ) | + (“+” represents greater than 15% effect) | strongest anti-tumor effects | + (“+” represents greater than 15% effect) | inhibited HIV-1 replication | + (“+” represents greater than 15% effect) | + (“+” represents greater than 15% effect) | some anti-KS activity |  |  | 
30. 37-55: β-hCG amino acids 37-55 as printed; probably 47-55 (YCPTMTRVLQGVLPALPQV; UniProt P0DN86 57-75, looked up, fragment) | + (“+” represents greater than 15% effect) |  | + (“+” represents greater than 15% effect) |  | + (“+” represents greater than 15% effect) | + (“+” represents greater than 15% effect) |  | + (“+” represents greater than 15% effect) |  | 
8. 41-54: β-hCG amino acids 41-54 (SEQ ID NO:3) (MTRVLQGVLPALPQ) | − (“−” represents less than 10% effect) |  | − (“−” represents less than 10% effect) |  | − (“−” represents less than 10% effect) | − (“−” represents less than 10% effect) |  | − (“−” represents less than 10% effect) |  | 
1. 109-119: β-hCG amino acids 109-119 (SEQ ID NO:7) (TCDDPRFQDSS) | + (“+” represents greater than 15% effect) | strongest anti-tumor effects | + (“+” represents greater than 15% effect) | inhibit HIV-1 replication in vitro | + (“+” represents greater than 15% effect) | + (“+” represents greater than 15% effect) | some anti-KS activity |  | directly promoted | 
47-55: β-hCG amino acids 47-55 (SEQ ID NO:20) (GVLPALPQV) |  |  |  | inhibited HIV-1 replication |  |  | some anti-KS activity |  | pro-hematopoietic effect | elicited inhibition
Cys-Val-Ala-Gln-Gly-Val-Leu-Pro-Ala-Leu-Pro-Gln-Val-Val-Cys (CVAQGVLPALPQVVC; disulfide 1-15 (inferred)) [12. Scrambled circ. 44-57] | − (“−” represents less than 10% effect) |  | − (“−” represents less than 10% effect) |  | − (“−” represents less than 10% effect) |  |  |  |  | no inhibitory effect
35. 1-15: α-hCG amino acids 1-15 (APDVQDCPECTLQEN; UniProt P01215 25-39, looked up, fragment) | − (“−” represents less than 10% effect) |  | − (“−” represents less than 10% effect) |  |  | − (“−” represents less than 10% effect) |  |  |  | 
9. 38-57: β-hCG amino acids 38-57 (CPTMTRVLQGVLPALPQVVC; UniProt P0DN86 58-77, looked up, fragment) | − (“−” represents less than 10% effect) |  | − (“−” represents less than 10% effect) |  | − (“−” represents less than 10% effect) | − (“−” represents less than 10% effect) |  |  |  | 
CVAQPGPQVLLVLC (cysteine pairing not given here) [11. Scrambled 45-57] |  | exhibited activity | ++ (“++” represents greater than 40% effect) | inhibitory effect | ++ (“++” represents greater than 40% effect) |  |  |  |  | some inhibition
5. 47-57::108-119: β-hCG 47-57 linked at the C-terminus to the N-terminus of 108-119 (SEQ ID NO:32) (GVLPALPQVVCLTCDDPRFQDSS) |  | strongest anti-tumor effects | ++ (“++” represents greater than 40% effect) | inhibit HIV-1 replication in vitro | ++ (“++” represents greater than 40% effect) | +++ (“+++” represents greater than 70% effect) | significant anti-KS activity | ++ (“++” represents greater than 40% effect) |  | 
